This is an account of results in article doi:10.64898/2025.12.15.694443v1 (biorxiv, 2025).

Structures are written as SMILES. A value given as a limit tells only on which side of the number the result lay.

In assay [1] the target is T1, CRAF^SSDD (CRAF^SSDD/MEK1) (Homo sapiens, UniProt P04049, Y340D/Y341D). In words: TR-FRET MEK phosphorylation assay, bell-shaped fit. The format is biochemical. In general terms: In TR-FRET formats the signal depends on donor and acceptor labels being close together.
For assay [2], the target named is T2, ARAF^SSDD (ARAF^SSDD/MEK1) (Homo sapiens, UniProt P10398, G300S/Y301D/Y302D). In words: biochemical.
Assay [3] concerns the target T2, ARAF^SSDD (ARAF^SSDD/MEK1). In words: TR-FRET MEK phosphorylation assay, bell-shaped fit. The format is biochemical.
The target in assay [4] is T1, CRAF^SSDD (CRAF^SSDD/MEK1). In words: biochemical.
The target of assay [5] is BRAF monomer complex (BRAF/MEK1 SASA) (Homo sapiens, UniProt P15056). In words: TR-FRET MEK phosphorylation assay, bell-shaped fit. Conditions: […] enzyme, […] ATP, […] MEK-B, […] DMSO; unreliable. It counts as biochemical.
Assay [6] concerns the target T3, ARAF monomer complex (ARAF/MEK1 SASA) (Homo sapiens, UniProt P10398). In words: TR-FRET MEK phosphorylation assay, bell-shaped fit. The format is biochemical.
The target of assay [7] is T3, ARAF monomer complex (ARAF/MEK1 SASA). The assay is described as follows: TR-FRET MEK phosphorylation assay, bell-shaped fit. The format is biochemical. This is another data set of the same source.
Assay [8] concerns the target T4, CRAF monomer complex (CRAF/MEK1 SASA) (Homo sapiens, UniProt P04049). The assay is described as follows: TR-FRET MEK phosphorylation assay, bell-shaped fit. It counts as biochemical.
Assay [9] addresses T4, CRAF monomer complex (CRAF/MEK1 SASA). In words: TR-FRET MEK phosphorylation assay, bell-shaped fit. It counts as biochemical. The source holds these as a separate data set.

T2 sequence (P10398 274-606 G300S/Y301D/Y302D): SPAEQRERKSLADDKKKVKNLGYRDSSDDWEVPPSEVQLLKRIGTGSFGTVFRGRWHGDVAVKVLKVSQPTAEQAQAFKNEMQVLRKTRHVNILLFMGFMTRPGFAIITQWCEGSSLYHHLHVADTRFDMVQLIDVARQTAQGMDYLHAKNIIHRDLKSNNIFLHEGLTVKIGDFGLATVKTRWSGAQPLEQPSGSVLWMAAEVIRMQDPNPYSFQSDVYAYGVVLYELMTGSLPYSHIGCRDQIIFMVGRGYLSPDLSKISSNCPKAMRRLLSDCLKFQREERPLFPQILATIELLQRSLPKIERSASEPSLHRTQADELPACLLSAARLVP
T2 sequence (Q02750 whole entry S218A/S222A partner): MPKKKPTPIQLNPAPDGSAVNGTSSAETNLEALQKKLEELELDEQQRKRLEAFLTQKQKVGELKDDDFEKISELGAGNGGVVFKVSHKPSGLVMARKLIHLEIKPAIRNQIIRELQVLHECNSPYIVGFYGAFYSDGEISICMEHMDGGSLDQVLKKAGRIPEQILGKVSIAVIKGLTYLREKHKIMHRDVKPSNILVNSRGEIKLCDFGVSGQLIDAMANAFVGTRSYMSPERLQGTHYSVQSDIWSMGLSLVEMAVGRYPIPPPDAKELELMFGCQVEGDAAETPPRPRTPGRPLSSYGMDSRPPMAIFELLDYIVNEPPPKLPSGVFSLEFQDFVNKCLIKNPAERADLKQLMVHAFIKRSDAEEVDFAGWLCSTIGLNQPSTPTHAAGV
T1 sequence (P04049 314-618 Y340D/Y341D): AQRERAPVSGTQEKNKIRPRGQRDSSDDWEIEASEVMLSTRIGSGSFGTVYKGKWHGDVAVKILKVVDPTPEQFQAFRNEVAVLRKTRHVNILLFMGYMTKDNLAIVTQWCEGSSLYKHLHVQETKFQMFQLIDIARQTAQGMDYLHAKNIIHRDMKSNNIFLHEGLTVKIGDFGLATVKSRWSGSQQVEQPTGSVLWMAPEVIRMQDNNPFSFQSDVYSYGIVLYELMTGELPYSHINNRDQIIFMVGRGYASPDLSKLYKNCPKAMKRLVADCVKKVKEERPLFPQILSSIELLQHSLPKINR
T1 sequence (Q02750 whole entry S218A/S222A partner): as the sequence (Q02750 whole entry S218A/S222A partner) above
T4 sequence (P04049 324-618): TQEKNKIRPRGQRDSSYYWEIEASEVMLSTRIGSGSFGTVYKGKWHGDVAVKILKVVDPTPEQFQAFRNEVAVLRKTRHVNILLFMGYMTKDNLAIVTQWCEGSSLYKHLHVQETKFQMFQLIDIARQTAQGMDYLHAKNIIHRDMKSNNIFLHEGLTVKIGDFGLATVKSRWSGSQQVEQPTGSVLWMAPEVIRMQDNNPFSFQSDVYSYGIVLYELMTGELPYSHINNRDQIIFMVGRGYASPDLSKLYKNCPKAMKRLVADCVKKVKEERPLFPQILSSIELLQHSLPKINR
T4 sequence (Q02750 whole entry S218A/S222A partner): as the sequence (Q02750 whole entry S218A/S222A partner) above
T3 sequence (P10398 282-579): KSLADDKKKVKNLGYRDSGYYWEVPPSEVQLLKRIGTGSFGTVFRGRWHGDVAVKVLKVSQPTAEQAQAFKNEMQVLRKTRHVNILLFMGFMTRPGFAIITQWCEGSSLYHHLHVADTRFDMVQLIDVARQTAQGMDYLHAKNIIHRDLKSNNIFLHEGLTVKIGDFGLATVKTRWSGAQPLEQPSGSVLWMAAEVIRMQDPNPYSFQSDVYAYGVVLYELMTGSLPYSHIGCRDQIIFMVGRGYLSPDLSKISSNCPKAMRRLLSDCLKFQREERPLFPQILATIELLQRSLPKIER
T3 sequence (Q02750 whole entry S218A/S222A partner): as the sequence (Q02750 whole entry S218A/S222A partner) above
Chain of BRAF monomer complex (BRAF/MEK1 SASA) (P15056 445-723): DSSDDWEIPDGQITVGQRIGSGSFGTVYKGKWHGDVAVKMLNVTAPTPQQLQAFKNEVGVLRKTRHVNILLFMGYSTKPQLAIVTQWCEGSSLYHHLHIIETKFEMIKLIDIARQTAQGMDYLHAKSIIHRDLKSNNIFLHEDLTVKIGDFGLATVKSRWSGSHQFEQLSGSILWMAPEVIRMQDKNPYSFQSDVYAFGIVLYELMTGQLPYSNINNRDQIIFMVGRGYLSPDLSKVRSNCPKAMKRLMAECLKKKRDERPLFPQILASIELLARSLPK
Chain of BRAF monomer complex (BRAF/MEK1 SASA) (Q02750 whole entry S218A/S222A partner): as the sequence (Q02750 whole entry S218A/S222A partner) above

A word on the IC50: it is the concentration that gives 50% inhibition. A higher IC50 goes with a need for much substance. Usually AC50 stands for the concentration at which the activity in the assay is half-maximal. The low end stands for greater potency, the high end for weaker potency. Consider `Cc1ccc(NC(=O)c2ccnc(C(F)(F)F)c2)cc1-c1cc(OCCO)nc(N2CCOCC2)c1` [Naporafenib], for which the IC50 in assay [1] was 79.2 ± 24.1 nM; in assay [3], 673 ± 488 nM. In addition, the AC50 in assay [2] amounted to 13.3 ± 5.15 nM; in [4] it was 0.06 ± 0.04 nM.

In [2], `Cc1ccc(NC(=O)c2cccc(C(C)(C)C#N)c2)cc1Nc1ccc2ncn(C)c(=O)c2c1` [AZ628] displayed an AC50 of 1.72 ± 1.24 nM. For the same compound, in assay [3], the IC50 came out at 44.4 ± 17.6 nM.

Take `Cc1ccc2c(Nc3cccc(Cl)c3F)nccc2c1NC(=O)c1csc2c(N)ncnc12` [Belvarafenib]: the IC50 in assay [1] was found to be 34.6 ± 5.15 nM. In assay [4], this compound showed an AC50 of 0.07 ± 0.06 nM.

For `CN(C)CCOc1ccc(-c2nc(-c3ccncc3)c(-c3ccc4c(c3)CC/C4=N\O)[nH]2)cc1` [SB590885], the concentration for half-maximal inhibition (IC50) in assay [1] was > 10000 nM; in [5] it was 1915 ± 889 nM; in assay [3] it was > 10000 nM; in assay [6], > 10000 nM; in assay [9] it was > 10000 nM. Further, the half-maximal activity concentration (AC50) in assay [2] amounted to 7.62 ± 2.83 nM; in [7], 11.7 ± 14.3 nM; in assay [8] it was 242 ± 19.5 nM; in [4] it was 3.46 ± 1.49 nM.
